Experimental data taken from article PMC12650355 (2025).

Assays:
[1] = system: Apt2 (DNA, aptamer) ACTTCAGTGAGTTGTCCCACGGTCGGCGAGTCGGTGGTAG; test: SPR (Biacore T200), single concentration; settings: 100 mM Na+, 5 mM K+, 2 mM Mg2+, 1 mM Ca2+ (sample diluent Buf1), diluent Buf1 pH 7.4, SA-coated CM5 chip
[2] = system: Apt2 (DNA, aptamer) ACTTCAGTGAGTTGTCCCACGGTCGGCGAGTCGGTGGTAG; test: SPR (Biacore T200), steady-state fit; settings: 100 mM Na+, 5 mM K+, 2 mM Mg2+, 1 mM Ca2+ (sample diluent Buf1); running buffer PBS; diluent Buf1, 20 mM Tris-HCl pH 7.4; SA-coated CM5 chip
[3] = 6.4 μM tested, running buffer PBS not restated

Row | binding [1, 3] | SMILES | also measured
1 | no | CS(=O)(=O)c1ccc([C@@H](O)[C@@H](CO)NC(=O)C(Cl)Cl)cc1 | –
2 | – | CO/N=C(\C(=O)N[C@@H]1C(=O)N2C(C(=O)O)=C(COC(N)=O)CS[C@H]12)c1ccco1 | binding ([1]; 6.4 μM tested (printed CN, CXM)): no
3 | – | O=C(N[C@H](CO)[C@H](O)c1ccc([N+](=O)[O-])cc1)C(Cl)Cl | KD [2]: 141 nM
4 | no | CS(=O)(=O)c1ccc([C@@H](O)[C@@H](CF)NC(=O)C(Cl)Cl)cc1 | –
